Consider 64 molecules from PubChem BioAssay AID1645848.

Converted amounts (≈) assume the structure as drawn.

The conditions of this data set: buffer; pH 7.4; 6.0 h; 150.0 µM.
With `CCC(CC)c1cc([C@H]2CN3CC[C@H]2C[C@@H]3CNC(=O)COc2ccccc2)nc(-c2ccncc2)n1`, the solubility (kinetic) is above 74 µg/mL.

For `CN1CCN(C2=Nc3cc(Cl)ccc3Nc3ccccc32)CC1`, the solubility (kinetic) came to 25.1 µg/mL (≈ 76.8 µM).

`CC(=O)NCCNC(=O)c1ccc(-c2ncc3cnc(-c4cccc(F)c4)cn23)cc1` showed a solubility (kinetic) above 92 µg/mL.

Molecule `CN(Cc1cccs1)c1ncnc2ccc(-c3ccc4c(c3)OCO4)cc12` registered a kinetic solubility below 1 µg/mL.

Take `N#Cc1nc(-c2cccc3ccccc23)oc1NCc1ccccc1`: the solubility (kinetic) is below 1 µg/mL.

For the molecule `COc1ccc(-c2ccc3ncc4c(c3c2)n(-c2ccc(N3CCNCC3)c(C(F)(F)F)c2)c(=O)n4C)cn1`, the solubility (kinetic) was below 1 µg/mL.

Take `CCN1C(=O)c2ccccc2[S@](=O)c2ccc(C(=O)N[C@H](C)c3ccc4ccccc4c3)cc21`: the solubility (kinetic) is below 1 µg/mL.

`CNc1oc(-c2cccc3ccccc23)nc1C#N`: the kinetic solubility was below 1 µg/mL.

`O=c1ncn2nc(Sc3ccc(F)cc3F)ccc2c1-c1c(Cl)cccc1Cl` had a kinetic solubility above 100 µg/mL.

Take `Nc1nc(N)c2c(OCC3CCN(Cc4ccccc4F)CC3)cccc2n1`: the solubility (kinetic) is above 56 µg/mL.

`N#Cc1ccccc1CSc1nc2ncc(Br)cc2[nH]1`: the kinetic solubility was found to be 1.09 µg/mL (≈ 3.16 µM).

As for `CC(C)(C)c1ccc(-c2ccc(=O)n(CC(=O)NCCc3ccccc3)n2)cc1`, the solubility (kinetic) was below 1 µg/mL.

`CCc1ccc(NC(=O)c2[nH]c(C)c(C(C)=O)c2C)cc1S(=O)(=O)Nc1ccc(Br)cc1`: the kinetic solubility was determined as 7.72 µg/mL (≈ 14.9 µM).

`Cc1ccc(-c2[nH]n3c(=O)c4c(nc3c2C)CCCC4)cc1` returned a solubility (kinetic) of 1.03 µg/mL (≈ 3.52 µM).

Regarding `Cc1noc(C)c1C(=O)N1CCC2(CCCN(Cc3ccccc3)C2)CC1`, the solubility (kinetic) is below 1 µg/mL.

In turn, `Cc1ccc(CNCc2cn[nH]c2-c2ccc(C)cc2)cc1` had a solubility (kinetic) of 30 µg/mL (≈ 103 µM).

`Fc1ccc(Nc2nc(-c3ccncc3F)nc3ccccc23)cc1F` had a kinetic solubility below 1 µg/mL.

`O=C1C(c2ccc(C(F)(F)F)cc2)=C(Nc2ccc(Cl)cc2)c2ccccc21` gave a solubility (kinetic) below 1 µg/mL.

The molecule `O=C(O)c1cn(C2CC2)c2cc(N3C[C@@H]4C[C@H]3CN4)c(F)cc2c1=O` returned a solubility (kinetic) above 51 µg/mL.

Consider `O=C(C1CC(=O)N(c2n[nH]c3ccccc23)C1)N1CCC(c2noc3cc(F)ccc23)CC1` (centres undefined), for which the solubility (kinetic) stood at 2.36 µg/mL (≈ 5.28 µM).

In turn, `Fc1ccc(F)c(Nc2nc(-c3ccncc3)nc3ccccc23)c1` had a kinetic solubility below 1 µg/mL.

Molecule `COc1ccc(C2c3c(oc4ccc(C)cc4c3=O)C(=O)N2CCCN2CCOCC2)cc1OC` (centres undefined) displayed a kinetic solubility above 71 µg/mL.

`Cl.N=c1c2c(n(Cc3ccccc3)c3c1CCC3)CCC2` came in with a kinetic solubility above 39 µg/mL.

The molecule `NC(=O)C1CCN(c2nccc(-c3ccc4c(c3)OCCO4)n2)CC1` yielded a solubility (kinetic) above 50 µg/mL.

Regarding `O=C(NCCCN1CCCC1=O)c1ccc(-c2ncc3cnc(-c4ccccc4)cn23)cc1`, the kinetic solubility turned out to be 21.9 µg/mL (≈ 49.9 µM).

Turning to `COc1ccc(-n2nc(C3CCN(C(=O)c4ccccc4)CC3)[nH]c2=O)cc1`, the solubility (kinetic) was above 56 µg/mL.

`Cc1ccc(S(=O)(=O)Nc2cnccc2C(=O)Nc2nc3ccccc3s2)cc1` showed a solubility (kinetic) above 63 µg/mL.

On to `COc1ccc(Nc2ncnc3c2cnn3-c2ccc(C)cc2)cc1Cl`, for which the solubility (kinetic) is 0.075 µg/mL (≈ 0.205 µM).

`CC(C)n1cc(-c2ccc3c(c2)N(C)CC3)c2c(NS(=O)(=O)c3ccn(C)n3)ccnc21` had a solubility (kinetic) of 36.7 µg/mL (≈ 81.5 µM).

In the case of `COc1ccccc1C(=O)N1CCc2cc(-c3nc(NC(=O)Cc4ccc5c(c4)OCO5)sc3C)ccc21`, the kinetic solubility was below 1 µg/mL.

Turning to `CCc1ccccc1Nc1ncnc2c1cnn2-c1ccc(Cl)cc1`, the solubility (kinetic) is below 1 µg/mL.

The molecule `Br.CC(Cc1ccc(O)cc1)NCC(O)c1cc(O)cc(O)c1` (centres undefined) returned a solubility (kinetic) above 45 µg/mL.

`O=C(O)C1CCN(c2ncc(-c3ccc4c(c3)OCCCO4)s2)CC1` gave a solubility (kinetic) above 53 µg/mL.

As to `CCOC(=O)Cc1ccc(NC(=O)n2ncc3cc(Cl)ccc32)cc1`, the solubility (kinetic) was below 1 µg/mL.

In the case of `COCCNC(=O)c1ccc(-c2ncc3cnc(-c4cccc(F)c4)cn23)cc1`, the kinetic solubility stood at 28.1 µg/mL (≈ 71.9 µM).

In turn, `S=c1[nH]c2ccccc2n1CCc1ccccc1` had a kinetic solubility of 5.04 µg/mL (≈ 19.8 µM).

Regarding `N#C/C(=C\c1ccc(Sc2ccc(Cl)cc2)o1)c1nc2ccccc2[nH]1`, the kinetic solubility is below 1 µg/mL.

In turn, `CCOC(=O)c1nn(-c2ccccc2)c(=O)c2c(N)scc12` returned a kinetic solubility of 4.02 µg/mL (≈ 12.7 µM).

Consider `COc1cc(-c2nc(Nc3ccc(F)c(F)c3)c3ccccc3n2)ccn1`, for which the kinetic solubility is below 1 µg/mL.

`COc1cccc(CNc2ccc(S(=O)(=O)Nc3nc4ccccc4[nH]3)cc2)c1O` showed a solubility (kinetic) of 2.59 µg/mL (≈ 6.1 µM).

Turning to `O=[N+]([O-])c1cccc(CSc2nc3ncc(Br)cc3[nH]2)c1`, the kinetic solubility is below 1 µg/mL.

The molecule `CC1CCCCN1c1ncnc(N)c1[N+](=O)[O-]` (centres undefined) gave a solubility (kinetic) above 35 µg/mL.

Regarding `C[S+](=O)([O-])c1ccc(-c2nc(C(=O)N3CCOCC3)n3ccncc23)cc1`, the kinetic solubility was above 57 µg/mL.

With `CSc1cccc(NC(=O)CC[C@H]2O[C@@H]3O[C@]4(C)CC[C@H]5[C@H](C)CC[C@@H]([C@@H]2C)[C@@]35OO4)c1`, the kinetic solubility stood at 1.2 µg/mL (≈ 2.6 µM).

`COc1cccc(CNc2ccc(S(=O)(=O)Nc3nccs3)cc2)c1O` came in with a kinetic solubility above 58 µg/mL.

In the case of `CCC[C@H](NC(=O)/C(C#N)=C/c1cccc(Br)n1)c1ccccc1`, the solubility (kinetic) is below 1 µg/mL.

For `COc1ccc(OC)c(N2C(=O)C(Cl)=C(N3CCCCC3)C2=O)c1`, the kinetic solubility is below 1 µg/mL.

For the molecule `O=C(Nc1ccc(N2CCC(N3CCCCC3)CC2)c(C(=O)O)c1)c1ccc(Br)cc1`, the solubility (kinetic) came to 34 µg/mL (≈ 69.9 µM).

Consider `c1cc(-c2cc(-c3ccncc3)c3cncn3c2)c2[nH]ccc2c1`, for which the kinetic solubility was below 1 µg/mL.

`CNC(=O)c1cccc(-c2cnc(Nc3cccc(C(F)(F)F)c3)c3c2CCO3)c1` yielded a kinetic solubility below 1 µg/mL.

As to `COc1cccc(CN2CCNc3cc(Nc4ccccc4)ncc3C2)c1`, the kinetic solubility was 49.9 µg/mL (≈ 139 µM).

As for `Cc1ccc(S(=O)(=O)Nc2cnccc2C(=O)Nc2ccc(C#N)cc2)cc1`, the solubility (kinetic) was above 58 µg/mL.

Consider `O=C(NCc1ccncc1)c1nc(-c2cccnc2)c2cnccn12`, for which the solubility (kinetic) worked out at 40.8 µg/mL (≈ 124 µM).

`COc1ccccc1C(=O)Nc1ccccc1C(=O)Nc1cccc(C(F)(F)F)c1` returned a solubility (kinetic) below 1 µg/mL.

As for `Cc1ccc(S(=O)(=O)Nc2ccccc2C(=O)Nc2ccc(-c3ccccc3)nn2)cc1`, the solubility (kinetic) is below 1 µg/mL.

Turning to `Cc1ccc(NS(=O)(=O)c2ccc3c(c2)NC(=O)CO3)cc1C`, the kinetic solubility came to 7.82 µg/mL (≈ 23.5 µM).

`C=CCc1ccc(O)c(-c2ccc(O)c(CC=C)c2)c1` showed a solubility (kinetic) above 100 µg/mL.

`Cc1nc(NC2CCCCC2)c2nc(-c3ccccc3)n(CCN(C)C)c2n1` yielded a solubility (kinetic) above 56 µg/mL.

`CC(C)OC(=O)c1ccnc2cc(C(OCCN3CCCCC3)c3ccccc3Cl)sc12` (centres undefined): the kinetic solubility amounted to 16.6 µg/mL (≈ 35 µM).

Molecule `CCOC(=O)C1CCN(c2ncc(-c3ccc4c(c3)OCCCO4)s2)CC1` displayed a solubility (kinetic) below 1 µg/mL.

Molecule `NC(=O)C1CCN(c2nc(-c3ccc(N4CCCCC4)nc3)cs2)CC1` registered a kinetic solubility of 43.5 µg/mL (≈ 117 µM).

In the case of `C[C@H]1CN(C(=O)Nc2ccc(F)cc2)C[C@@H]1c1nc(-c2ccccc2)no1`, the kinetic solubility was 4.11 µg/mL (≈ 11.2 µM).

Molecule `COc1ncccc1-c1cc2[nH]ccc2c(C(=O)NCc2c(C)cc(C)[nH]c2=O)n1` gave a kinetic solubility of 5.75 µg/mL (≈ 14.3 µM).

Regarding `Cc1ccc(NS(=O)(=O)c2ccc(C(=O)Nc3nc(-c4ccccc4)cs3)cc2)cc1`, the kinetic solubility is below 1 µg/mL.
